Key:
[1] = test system: mouse osteoblast line MC3T3; test: Real-time PCR of osteogenic, endothelial and other lineage markers in treated mouse osteoblasts; assay type: cell-based
Source text: A high throughput screen was generated by modifying the mouse osteoblast line MC3T3. Fetal liver kinase 1 (Flk1) promoter-driven enhanced green fluorescent protein (eGFP) was introduced into these osteoblasts. […] Several libraries of small molecules, including a FDA-approved drug library, a UCLA in-house collection, and a custom set of compounds were screened. These libraries contained more than 22,000 small molecules ranging from natural products to synthesized compounds. […] Using arrange of dose (1-10 μM), it is shown that the reduction of the osteogenic markers Cbfa1, osterix and osteocalcin and the induction of the endothelial markers CD34, VE-cadherin, CD31 and eNOS occurred in a dose-dependent manner (FIG. 1, Part E). Osteoblasts were then treated with 10 μM SB216763 and examined the time-course expression of these osteogenic and endothelial markers. […] To determine if a mesenchymal stage or emerging stemness is required for SB216763 to induce osteoblastic-endothelial transdifferentiation, mesenchymal and stem cell markers were examined and found no induction in the SB216763-treated cells (FIG. 9, Part E). It was further determined the specificity of endothelial differentiation by closely examining other vascular lineage markers including smooth muscle cells (SMCs), pericytes, and fibroblasts by using real-time PCR. In addition, no-vascular lineages, such as cardiac, neuronal, hepatic, pulmonary, renal, hematopoietic and adipogenic lineages were examined. […] Because GSK3 is important in glucose metabolism, the expression of genes related to glucose metabolism was determined in the SB216763-treated osteoblasts, such as casein kinase 2, glucose transporter 4, and insulin receptor substrates 1 and 2.
Real-time PCR analysis was performed as previously described. Glyceraldehyde 3-phosphate dehydrogenase (GAPDH) was used as a control gene. Primers and probes for mouse and human Cbfa1, ostrix, osteocalcin, CD34, VE-cadherin, CD31, eNOS, SMAD1, and β-catenin, were obtained from Applied Biosystems as part of Tagman® Gene Expression Assays.

[2] = test system: promoter region of Smad1 gene; test: ChIP assay of β-catenin DNA-binding and histone modification in promoter of Smad1 gene; assay type: cell-based, mouse
Source text: The expression of transcription factors that are known to be involved in bone formation or vascular development were screened. […] To determine if excess β-catenin affected SMAD1 expression, β-catenin in SB216763-treated osteoblasts was depleted by using siRNA. […] DNA-binding sites of β-catenin by locating the binding motifs in Smad1 gene was explored, and identified four individual sites located at −196 bp, −1454 bp, −2805 bp and −4729 bp upstream of exon1 of Smad1 gene (FIG. 3, Part D). […] Then, transcriptional status of Smad1 was determined by examining the histone modification, including trimethylated histone H3 lysine 4 (H3K4me3) associated with active transcription and H3K27me3 a closed chromatin mark.
βChIP assays were performed as previously described. Specific antibodies for β-catenin were used (R&D System, MAB2006), H3k4me3 (Abcam, ab8580) and H3k27me3 (Abcam, ab6002). The primers for the real-time PCR: 5′GAAAATAACACAGGCTTTG3′ (SEQ ID NO: 13) and 5′ GCTCCCCGAGCCTGGATT 3′ (SEQ ID NO: 14); 5′ GGACAGAGGCTCTCATTCC 3′ (SEQ ID NO: 15) and 5′[…]3′ (SEQ ID NO: 16) and 5′[…]3′ (SEQ ID NO: 17) 5′[…]3′ (SEQ ID NO: 18); 5′[…]3′ (SEQ ID NO: 19) and 5′[…]3′ (SEQ ID NO: 20).

[3] = test system: SMAD1 or β-catenin DNA-binding; test: ChIP-seq of SMAD1 and β-catenin DNA-binding in treated osteoblasts; assay type: cell-based, mouse
Protocol: A chromatin immunoprecipitation was performed with massively parallel DNA sequencing (ChIP-seq) to examine potential alterations of SMAD1 or β-catenin DNA-binding in SB216763-treated osteoblasts.
For ChIP-seq, specific antibodies were used to enrich the genomic DNA as described before. ChIP DNA were sequenced by the Pathology Research Services at UCLA. Reads from each sample were mapped to the mouse genome using Bowtie2. Homer tool was used to detect significant enrichment of peaks with 5% false discovery rate and >4-fold over input. Motif occurrences in peaks were identified by the Homer motif discovery function. Peak annotation was performed to associate peaks with nearby genes and calculate tag densities. GO analysis and pathway enrichment of the identified genes were also performed. Specific antibodies for SMAD1 (Cell Signaling Technology, 9743) and β-catenin (R&D System, MAB2006) were used. The data were deposited in Gene Expression Omnibus (GEO) database with access number (GSE147374).

[4] = test system: vascular calcification in Mgp−/− mice; test: Early vascular calcification in Mgp−/− mice; assay type: in vivo, mouse; conditions: Mgp−/− mice at 2 weeks of age, 5 ug/g daily for 2 weeks
Protocol: To examine whether SB216763 could be used for treatment of vascular calcification, the Mgp^−/− mouse was chosen, a well-known model of calcification. Mgp^−/− mice develop arterial calcification as early as postnatal day 14. At 4 weeks of age, the entire arterial vasculature is severely calcified. Two independent experiments were performed to test if SB216763 decreased calcification in Mgp^−/− mice. First, young Mgp^−/− mice at 2 weeks of age with SB216763 were treated (5 ug/g daily) for 2 weeks to determine if SB216763 prevented osteogenesis in the Mgp^−/− aortas (FIG. 5, Part A).
Mgp^+/− (B6.129S7-Mgptm1Kry/KbosJ), Col1α1^CreERT2 (B6.Cg-Tg(Col1α1-cre/ERT2)1Crm/J), GSK3β^flox/flox (B6.129(Cg)-Gsk3btm2Jrw/J) and Osx-Gfptg (B6.Cg-Tg(Sp7-tTA,tetO-EGFP/cre)1Amc/J) mice on C57BL/6J background were purchased from the Jackson Laboratory. Genotypes were confirmed by PCR, and experiments were performed with generation F4-F6. Littermates were used as wild type controls. All mice were fed a standard chow diet. The studies were reviewed and approved by the Institutional Review Board and conducted in accordance with the animal care guidelines set by the University of California, Los Angeles (UCLA). The investigation conformed to the National Research Council, Guide for the Care and Use of Laboratory Animals, Eighth Edition (Washington, D.C.: The National Academies Press, 2011).

[5] = dose range 1-10 μM, dose-dependent manner

expression of genes related to glucose metabolism (casein kinase 2, glucose transporter 4, insulin receptor substrates 1 and 2) ([1]; treated osteoblasts): No changes were detected
β-catenin abundance around binding sites upstream of exon1 of Smad1 gene ([2]; treated osteoblasts vs non-treated controls): more abundance of β-catenin
Compound: Cn1cc(C2=C(c3ccc(Cl)cc3Cl)C(=O)NC2=O)c2ccccc21 [SB216763]
time-course expression of osteogenic and endothelial markers ([1]; 10 μM): a reduction of osteogenic markers preceded the induction of the endothelial markers
expression of endothelial markers CD34, VE-cadherin, CD31 and eNOS [1, 5]: induction
expression of osteogenic markers Cbfa1, osterix and osteocalcin [1, 5]: reduction
other vascular and non-vascular lineage markers (SMC, pericyte, fibroblast, cardiac, neuronal, hepatic, pulmonary, renal, hematopoietic, adipogenic) ([1]; real-time PCR): No changes were found
mesenchymal and stem cell markers ([1]; treated cells): no induction
histone modification H3K4me3 and H3K27me3 around β-catenin binding sites in Smad1 promoter ([2]; treated osteoblasts): lower abundance of H3K4me3 with higher abundance H3K27me3
genes with decreased DNA-binding of SMAD1 in the regulatory regions ([3]; ChIP-seq): 8214 genes
genes with increased β-catenin DNA-binding in the regulatory regions ([3]; ChIP-seq): 1543 genes
genes with an increase in expression and β-catenin DNA-binding ([3]; overlap with 519 induced genes): 84 genes
genes with a decrease in both gene expression and SMAD1 DNA-binding ([3]; overlap with 827 suppressed genes): 649 genes
CD31+ aortic cells co-expressing VE-cadherin and osterix, FACS [4]: decreased number of cells that co-expressed VE-cadherin and osterix
CD31+ aortic cells expressing only VE-cadherin, FACS [4]: increased number of cells that only expressed VE-cadherin
aortic mineralization, von Kossa staining [4]: dramatic decrease in aortic mineralization
immunoblotting of aortic tissues [4]: decreased Cbfa1 and osterix, increased von Willebrand factor (vWF) and VE-cadherin and altered SMAD1 and β-catenin
total aortic calcium [4]: decrease in calcium deposition

Source: patent US20230285357A1, “COMPOSITIONS AND METHODS FOR […] CELLS” (The Regents of the University of California, priority 2020, published 2023)
